Data from patent US8178659B2, “Targets for the identification of antibiotics that are not susceptible to antibiotic resistance” (priority 2005, dated 2012).
Converted amounts (≈) assume the structure as drawn.

System: E. coli DH5 cells
Assay: Minimum inhibitory concentration (MIC) of chloramphenicol in the specialized ribosome (CAT reporter) system
Format: cell-based
Details: Escherichia coli, DH5CELLS
Description: To examine the role of potential interactions within the 530 loop (FIG. 3.1) nucleotides involved in the proposed interactions were randomly mutated using PCR and cloned into pRNA16ST, a derivative of pRNA122 (Lee et al., 1996; Lee et al., 1997). pRNA 16ST contains only the 16 S rRNA from the rrnB operon rather then the entire operon. […] In this specialized in vivo system, the chloramphenicol acetyltransferase (CAT) reporter message is translated exclusively by plasmid-derived ribosomes that cannot translate normal cellular messages (Lee et al., 1996; Lee et al., 1997). Thus, the minimal inhibitory concentration (MIC) of chloramphenicol for each mutant is correlated to the level of function of the plasmid-derived ribosomes. This allows for the selection of functional mutants on chloramphenicol containing media. Survivors were then sequenced and assayed for function by determining the MIC for each mutant.
Minimum inhibitory concentration (MIC). MICs were determined by standard methods in microtiter plates. Overnight cultures grown in LB-Ap100 were diluted and induced in the same medium containing 1 mM IPTG for two to three hours at 37° C. Approximately 10^4 induced cells were then added to wells containing LB-Ap100+IPTG (1 mM) and chloramphenicol at increasing concentrations.

## O=C(N[C@H](CO)[C@H](O)c1ccc([N+](=O)[O-])cc1)C(Cl)Cl [chloramphenicol]
Cells expressing wild-type ribosomes in the system (pRNA123)
  MIC: 700 µg/mL (≈ 2170 µM)
Uninduced wild-type plasmid (pRNA228) as well as a lethal clone
  MIC: 15 µg/mL (≈ 46.4 µM)
